From patent publication US20240034742A1, “DOSING REGIMENS FOR CYCLIN-DEPENDENT KINASE 7 (CDK7) INHIBITORS” (Syros Pharmaceuticals, Inc., priority 2020, published 2024)

Legend:
[1] = tested on: ST390 (modeling pancreatic ductal adenocarcinoma (PDAC)); assay: Tumor growth inhibition in PDAC PDX model ST390; details: 6 mg/kg QD PO, over the time examined (~28 days)
Protocol: (§1) In the TNBC, SCLC, and HGSOC models, tumor volume was measured during the treatment period and for an additional 21 days after treatment ceased. […] The same calculations were used for end of study (day 42).

[2] = tested on: PDX models with oncogenic alterations in the RB pathway and MAPK pathway; assay: Anti-tumor activity in PDX models with RB or MAPK pathway alterations; format: in vivo; details: well-tolerated doses; models from SCLC, TNBC, HGSOC, CRC, PDAC, NSCLC patients
HCC70 cell line = assay: Inhibition of cell proliferation (CyQUANT Direct Cell Proliferation Assay); format: cell-based; details: Homo sapiens, 72-hour proliferation assay
Protocol: The HCC70 cell line was derived from human TNBC, and we tested representative compounds of the invention, at different concentrations (from […]; 0.5 log serial dilutions), for their ability to inhibit the proliferation of those cells. More specifically, we tested the same compounds tested above for CDK7 selectivity (the structures of which are shown in FIG. 1), and we used the known CDK inhibitors dinaciclib (or N-((1S,3R)-3-((5-chloro-4-(1H-indol-3-yl) pyrimidin-2-yl)amino)cyclohexyl)-5-((E)-4-(dimethylamino)but-2-enamido)picolinamide) and triptolide as positive controls. The cells were grown in ATCC-formulated RPMI-1640 medium (ATCC 30-2001) supplemented with 10% fetal bovine serum (FBS), at 37° C. in a humidified chamber in the presence of 5% CO2. We conducted proliferation assays over a 72-hour time period using a CyQUANT® Direct Cell Proliferation Assay (Life Technologies, Chicago, IL USA) according to the manufacturer's directions and utilizing the reagents supplied with the kit.

[3] = tested on: 12 PDX models representing SCLC, TNBC and HGSOC; assay: Tumor growth inhibition in TNBC, HGSOC and SCLC PDX models
Protocol: as §1
Dosing was initiated when tumors were 150-300 mm^3. […] TGI was calculated on the last day of dosing using the formula: TGI=(Vc1−Vt1)/(Vc0−Vt0), where Vc1 and Vt1 are the mean volumes of control and treated groups at the time of tumor extraction, while Vc0 and Vt0 are the same groups at the start of dosing.

[4] = tested on: patients with advanced solid tumors; assay: Phase 1, first-in-human dose escalation study
Protocol: We focused on safety, tolerability, PK, and PD (as assessed by a PD gene expression marker, POLR2A mRNA) in a 28-day single agent continuous daily dosing regimen and a 3-week-on, I-week-off combination regimen with fulvestrant.
Safety and tolerability, including cycle-1 dose-limiting toxicities (DLTs) were evaluated. Dose-limiting toxicities were graded using the National Cancer Institute Common Toxicity Criteria for Adverse Events (NCI-CTCAE) version 5.0. Serial plasma PK and PD in peripheral blood mononuclear cells (PBMCs) were obtained on days 1 and 15 in cycle 1. […] Tumor responses were assessed per RECIST version 1.1.

[5] = tested on: palbociclib and fulvestrant double-resistant ER+BC PDX model (ST941); assay: Tumor growth inhibition in palbociclib and fulvestrant double-resistant ER+BC PDX model ST941; format: in vivo, mice; details: last day of 28 days dosing, Compound 101 6 mg/kg QD PO, fulvestrant 2.5 mg/kg weekly SC, palbociclib 50 mpk QD PO
Protocol: Tumor growth inhibition was evaluated in estrogen receptor-positive breast cancer (ER-BC) PDX models selected in vivo for resistance to the CDK4/6 inhibitor palbociclib (ST1799, […]) or resistance to both palbociclib and fulvestrant (ST941, n=1), Dosing was initiated when tumors were 100-200 mm^3.

[6] = single agent and in combination with fulvestrant

In the case of CC1(C)CC[C@H](Nc2ncc(C(F)(F)F)c(-c3c[nH]c4c(P(C)(C)=O)c(C#N)ccc34)n2)CN1 [Compound 101, (S)-7-(dimethylphosphoryl)-3-(2-((6,6-dimethylpiperidin-3-yl)amino)-5-(trifluoromethyl)pyrimidin-4-yl)-1H-indole-6-carbonitrile], the “Tumor growth inhibition (TGI)” value [1] is reported as 100%, the anti-tumor activity [2] is reported as “robust anti-tumor activity” and the EC50 (HCC70 cell line) is reported as 3.6 nM. The “TGI in TNBC (BR5010), SCLC (LU5178) and HGSOC (OV15398) PDX models” value ([3]; 10 mg/kg QD or 5 mg/kg BID (TNBC), 3 mg/kg BID (SCLC, HGSOC), PO, 21 days, plus 21 days observation) was “deep and sustained TGI, including regressions”, the “TGI at the end of the 21-day dosing period in all models” value ([3]; 12 PDX models, 6 or 10 mg/kg QD or 3 or 5 mg/kg BID PO) was “at least 50%” and the “TGI in the subset of models (58%, 7/12) with deep and sustained responses” value ([3]; TGI or regression, no tumor regrowth for 21 days after treatment discontinuation) was greater than 95%. For the same compound, the “tolerability: body weight” value ([3]; all once-daily doses tested, tumor-bearing mice) was “no evident body weight loss”, the MTD ([3]; tumor-bearing mice) was “above 10 mg/kg once daily” and the “pharmacodynamics: POLR2A mRNA in PBMCs and CDK7 occupancy” value ([4]; 3 mg daily) was “induced POLR2A elevations associated with regressions in preclinical models and target levels of CDK7 occupancy in patients”. For the same compound, the dose-limiting events ([4]; cohort receiving 4 mg doses, continuous daily (Grade 3 fatigue; abdominal pain)) was “two”, the dose-limiting events ([4]; cohort receiving 5 mg doses, continuous daily (Grade 3 nausea; thrombocytopenia)) was “two” and the “patients who developed an SAE (all causality)” value ([4]; four of 13 patients) was 31%. The “grade of the majority of reported adverse events” value ([4]; in vivo) was “low grade”, the “accumulation with repeated dosing” value [4, 6] was “minimal accumulation” and the “dose proportionality of PK” value [4, 6] was “approximately dose proportional PK”. For the same compound, the “interpatient variability of PK” value [4, 6] was “moderate to high interpatient variability”, the steady state half-life [4, 6] was “compatible with once daily dosing” and the “best response (RECIST 1.1)” value ([4]; single agent, 3 mg daily, two patients (HR+ breast cancer, colorectal cancer)) was “stable disease”. For the same compound, the “best response (RECIST 1.1)” value ([4]; single agent, 5 mg daily, one patient, esophageal cancer) was “stable disease”, the MTD ([4]; single agent, oral, continuous daily dosing cohorts) was 3 mg and the “response (RECIST 1.1)” value ([4]; single agent, two patients with ovarian cancer, 1 mg and 3 mg daily) was “progressive disease”.

With C[C@]12CC[C@@H]3c4ccc(O)cc4C[C@@H](CCCCCCCCC[S+]([O-])CCCC(F)(F)C(F)(F)F)[C@H]3[C@@H]1CC[C@@H]2O (some centres unmarked) [fulvestrant] the “Tumor growth inhibition (TGI)” value [5] was “no activity”.

For CC(=O)c1c(C)c2cnc(Nc3ccc(N4CCNCC4)cn3)nc2n(C2CCCC2)c1=O [palbociclib], the “Tumor growth inhibition (TGI)” value [5] was “no activity”.
